The results in this text go back to ChEMBL document CHEMBL1201862, “PubChem BioAssay data set” (2004).

Among the test systems are A498; ACHN; COLO 205; HCC 2998; HCT-116; MCF7; MDA-MB-231; MDA-MB-435; NCI-H226; NCI-H23; OVCAR-4; RXF 393; SK-MEL-2; SK-MEL-5; SK-OV-3; SN12C; UACC-257; UACC-62; UO-31; HOP-92.
Experiment in all cases: inhibition of tumour cell growth, NCI panel, 48 h

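Briefly, cells in 96-well plates were exposed to five compound concentrations for 48 h, and endpoints were estimated by linear interpolation. Abbreviation: GI50, concentration required for 50% inhibition of growth.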 Activity calls are given as the source filed them. Cut-off read from the data, not from the text of the source: active = GI50 up to about 1.1 µM and inactive = higher. Some results are limits rather than exact numbers.

With `Cc1nnc2sc(Cl)nn12`, the GI50 with A498 was 31.3 µM (inactive); in the assay on ACHN, 23.3 µM (inactive); with COLO 205, 14.5 µM (inactive); in the assay with HCC 2998, 15.5 µM (inactive); with HCT-116 it was 8.95 µM (inactive); in the assay on MCF7, 13.3 µM (inactive). In addition, the GI50 in the assay with MDA-MB-231 is 22.1 µM (inactive); with MDA-MB-435, 7.64 µM (inactive); in the assay on NCI-H226 it was 28.6 µM (inactive); in the assay with NCI-H23, 17.3 µM (inactive); in the assay on OVCAR-4, 16.8 µM (inactive); in the assay with RXF 393, > 10 µM (inactive). Moreover, the GI50 with SK-MEL-2 was 24.1 µM (inactive); in the assay with SK-MEL-5 it was 12.6 µM (inactive); with SK-OV-3 it was 17.3 µM (inactive); in the assay on SN12C, 32.4 µM (inactive); with UACC-257 it was > 10 µM (inactive); in the assay on UACC-62 it was 4.51 µM (inactive). Also, in the assay with UO-31, the GI50 was 29.6 µM (inactive).
For the molecule `N/C(=N\OC(=O)NC(Cl)=C(Cl)Cl)c1cc(C(F)(F)F)cc(C(F)(F)F)c1`, the GI50 is 17.5 µM (inactive) with A498; 14 µM (inactive) in the assay with ACHN; 15.7 µM (inactive) in the assay with COLO 205; 12.5 µM (inactive) with HCC 2998; 18.6 µM (inactive) in the assay on HCT-116; 14.8 µM (inactive) in the assay on HOP-92. Also, the GI50 is 25.1 µM (inactive) in the assay with MCF7; 15.8 µM (inactive) with MDA-MB-231; 19.4 µM (inactive) in the assay with MDA-MB-435; 22.1 µM (inactive) in the assay on NCI-H226; 34.9 µM (inactive) in the assay with NCI-H23; 26.8 µM (inactive) with SK-MEL-5. Moreover, the GI50 was 28.4 µM (inactive) in the assay on SK-OV-3, 24.3 µM (inactive) in the assay on SN12C, 16.1 µM (inactive) in the assay with UACC-257 and 18 µM (inactive) with UO-31.
Turning to `O=c1[nH]nc(Cc2ccc(Cl)cc2)n1Nc1ccccc1`, the GI50 in the assay with A498, in the assay on ACHN, with COLO 205, with HCC 2998, in the assay with HCT-116 and with HOP-92 was > 100 µM (inactive) in each case. Further, the GI50 in the assay on MCF7, in the assay on MDA-MB-231, with MDA-MB-435, in the assay on NCI-H226, with NCI-H23 and in the assay on OVCAR-4 was > 100 µM (inactive) throughout. Besides, the GI50 in the assay with SK-MEL-2, with SK-MEL-5, in the assay on SN12C, in the assay on UACC-257, in the assay with UACC-62 and in the assay on UO-31 was > 100 µM (inactive) throughout.
`COC(=O)C1=C(C(=O)OC)SC(=C2c3ccsc3-c3sccc32)S1`: the GI50 in the assay with A498 is 24.5 µM (inactive); in the assay on ACHN it was 74.8 µM (inactive); in the assay on COLO 205, 47.5 µM (inactive); with HCC 2998 it was 40.6 µM (inactive); with HCT-116, 25.9 µM (inactive); with MCF7, 27.4 µM (inactive). Besides, the GI50 was > 100 µM (inactive) in the assay with MDA-MB-231; > 100 µM (inactive) with MDA-MB-435; 27.4 µM (inactive) in the assay with NCI-H226; 16.1 µM (inactive) in the assay on NCI-H23; > 10 µM (inactive) with OVCAR-4; 18.3 µM (inactive) in the assay on RXF 393. For the same molecule, the GI50 with SK-MEL-5 is 31.9 µM (inactive); in the assay with SK-OV-3, 12.3 µM (inactive); with SN12C, 65.8 µM (inactive); in the assay with UACC-257, 64.4 µM (inactive); in the assay with UACC-62 it was 26.6 µM (inactive); in the assay on UO-31 it was 99.1 µM (inactive).
As for `O=C1CC(Nc2ccccc2)c2c(Cl)sc(Cl)c21` (stereo not given), the GI50 in the assay on A498 is 2.5 µM (inactive); in the assay with ACHN, 1.18 µM (inactive); in the assay on COLO 205 it was 0.906 µM (active); with HCC 2998 it was 1.76 µM (inactive); with HCT-116 it was 1.19 µM (inactive); in the assay on HOP-92, 1.41 µM (inactive). Also, the GI50 is 1.47 µM (inactive) with MCF7; 1.92 µM (inactive) with MDA-MB-231; 1.52 µM (inactive) with MDA-MB-435; 8.65 µM (inactive) with NCI-H226; 1.91 µM (inactive) in the assay with NCI-H23; 2.01 µM (inactive) with OVCAR-4. Besides, the GI50 in the assay with SK-MEL-2 was 1.89 µM (inactive); in the assay on SK-MEL-5, 4.66 µM (inactive); in the assay on SK-OV-3 it was 13.4 µM (inactive); in the assay with SN12C, 1.51 µM (inactive); in the assay on UACC-257, 1.85 µM (inactive); in the assay on UACC-62, 1.32 µM (inactive). The GI50 with UO-31 is 1.11 µM (active).
For the molecule `NC(C(F)(F)F)(C(F)(F)F)P(=O)(c1ccccc1)c1ccccc1`, the GI50 with ACHN, with COLO 205, in the assay with HCC 2998, in the assay with HCT-116, in the assay on HOP-92 and in the assay on MCF7 was > 100 µM (inactive) each time. Moreover, the GI50 with MDA-MB-231, in the assay with MDA-MB-435, in the assay with NCI-H226, with NCI-H23, in the assay with OVCAR-4 and in the assay with RXF 393 was > 100 µM (inactive) in each case. Further, the GI50 with SK-MEL-2, in the assay on SK-MEL-5, in the assay on SK-OV-3, in the assay on SN12C, in the assay with UACC-257 and with UACC-62 was > 100 µM (inactive) each time. In addition, the GI50 in the assay on UO-31 is > 100 µM (inactive).
For `O=C(NNC(=O)c1ccccc1Cl)c1ccccc1O`, the GI50 in the assay on A498 is > 100 µM (inactive); in the assay with COLO 205, 35.2 µM (inactive); in the assay on HCT-116, 35.8 µM (inactive); in the assay with MCF7 it was 41.4 µM (inactive); in the assay with MDA-MB-231, > 100 µM (inactive); in the assay with MDA-MB-435, 67 µM (inactive). For the same molecule, the GI50 is 3.42 µM (inactive) in the assay with NCI-H226; > 100 µM (inactive) in the assay with OVCAR-4; > 100 µM (inactive) in the assay on RXF 393; 53.7 µM (inactive) in the assay on SK-MEL-2; > 100 µM (inactive) in the assay with SK-MEL-5; 18.2 µM (inactive) in the assay with SK-OV-3. For the same molecule, the GI50 in the assay with SN12C is > 100 µM (inactive); in the assay with UACC-257, > 100 µM (inactive); with UACC-62, 35.7 µM (inactive); with UO-31 it was 27.7 µM (inactive).
For the molecule `CN(C)Cc1cc(/C=C/C(=O)c2ccc(Br)cc2)cc(CN(C)C)c1O`, the GI50 was 13.6 µM (inactive) with A498; 11.5 µM (inactive) with ACHN; 14.6 µM (inactive) in the assay on COLO 205; 14 µM (inactive) in the assay with HCC 2998; 14.8 µM (inactive) with HCT-116; 22.6 µM (inactive) with MCF7. The GI50 in the assay on MDA-MB-231 is 14.7 µM (inactive); in the assay with MDA-MB-435 it was 16.9 µM (inactive); with RXF 393 it was 19.2 µM (inactive); with SK-MEL-2 it was 26.2 µM (inactive); in the assay with SK-MEL-5, 19.6 µM (inactive); in the assay on SK-OV-3, 29.8 µM (inactive). Further, the GI50 with SN12C is 15.6 µM (inactive); with UACC-257, 17.2 µM (inactive); in the assay with UACC-62, 20.4 µM (inactive); in the assay on UO-31, 10.7 µM (inactive).
In the case of `O=C1NC(=S)NC(=O)C1C(c1ccc(Cl)cc1)C1C(=O)NC(=S)NC1=O.c1ccncc1`, the GI50 with A498, in the assay with ACHN, with COLO 205, in the assay on HCT-116, in the assay on HOP-92 and in the assay on MCF7 was > 100 µM (inactive) throughout. The GI50 in the assay on MDA-MB-231, in the assay with MDA-MB-435, with NCI-H226, in the assay on NCI-H23, with OVCAR-4 and in the assay on RXF 393 was > 100 µM (inactive) each time. The GI50 in the assay on SK-MEL-2, with SK-MEL-5, in the assay with SN12C, with UACC-257, in the assay with UACC-62 and in the assay with UO-31 was > 100 µM (inactive) throughout.
On to `CC(C)(C)OC(=O)NCCCCC(NC(=O)c1ccccc1)C(N)=O` (stereo not given), for which the GI50 in the assay on A498, in the assay with ACHN, with COLO 205, in the assay on HCT-116, with MCF7 and in the assay with MDA-MB-231 was > 100 µM (inactive) in each case. Besides, the GI50 is > 100 µM (inactive) in the assay with MDA-MB-435; > 10 µM (inactive) with NCI-H226; > 100 µM (inactive) in the assay with NCI-H23; > 100 µM (inactive) in the assay with OVCAR-4; > 100 µM (inactive) with RXF 393; > 100 µM (inactive) in the assay on SK-MEL-2. Moreover, the GI50 was > 100 µM (inactive) in the assay on SK-MEL-5; 99.1 µM (inactive) in the assay on SK-OV-3; > 100 µM (inactive) in the assay with SN12C; > 100 µM (inactive) with UACC-257; 71.9 µM (inactive) in the assay on UACC-62; > 100 µM (inactive) with UO-31.
In the case of `COc1cc2c(c(OC)c1OC)-c1ccc(OC)c(=O)cc1C(NC(=O)CCCCCNc1ccc(N=[N+]=[N-])cc1[N+](=O)[O-])CC2` (stereo not given), the GI50 in the assay on A498 is < 0.01 µM (active); with ACHN it was 0.0271 µM (active); in the assay with COLO 205, < 0.01 µM (active); with HCC 2998, < 0.01 µM (active); in the assay with HCT-116, < 0.01 µM (active); in the assay on MCF7, < 0.01 µM (active). For the same molecule, the GI50 is < 0.01 µM (active) with MDA-MB-231; < 0.01 µM (active) with MDA-MB-435; < 0.01 µM (active) in the assay with NCI-H226; < 0.01 µM (active) in the assay with NCI-H23; 1.56 µM (inactive) in the assay on OVCAR-4; < 0.01 µM (active) in the assay on RXF 393. For the same molecule, the GI50 was < 0.01 µM (active) with SK-MEL-2; < 0.01 µM (active) in the assay on SK-MEL-5; < 0.01 µM (active) with SK-OV-3; < 0.01 µM (active) in the assay on SN12C; < 0.01 µM (active) in the assay on UACC-62; 1.47 µM (inactive) in the assay on UO-31.
